The subject of this assay is patient experiencing an allergic emergency (anaphylaxis). The note with it: no amelioration after approx. 5 minutes, same device, within about five minutes after second dose. How it is done:
Administration of a first and second injectable dosage form comprising an epinephrine solution for the treatment of anaphylaxis
A patient weighing approximately 15 Kg experiencing an allergic emergency whereupon a caretaker initiates treatment at the onset of shortness of breath by administering to the patient an auto-injection of a first dose of an epinephrine solution comprising 0.1 mg of epinephrine intramuscularly.
A patient weighing approximately 25 Kg experiencing an allergic emergency initiates treatment at the onset of shortness of breath by self administering a manual injection of a first dose of an epinephrine solution comprising 0.125 mg of epinephrine intramuscularly.
A patient weighing approximately 90 Kg experiencing an allergic emergency initiates treatment at the onset of shortness of breath by self administering an auto-injection of a first dose of an epinephrine solution comprising 0.6 mg of epinephrine subcutaneously.
A patient weighing approximately 110 Kg experiencing an allergic emergency initiates treatment at the onset of shortness of breath by self administering an auto-injection of a first dose of an epinephrine solution comprising 0.75 mg of epinephrine intramuscularly.

Consider one molecule from patent US20070203247A1, “E[…] REGIMENS” (priority 2006, published 2007).

Where two headings read alike, the source gives them in different places.

Consider `CNC[C@H](O)c1ccc(O)c(O)c1` [epinephrine], for which the “patient's symptoms of anaphylaxis after the second injectable dose” value by setting is: (Example 1: patient approx. 15 Kg, first dose 0.1 mg auto-injection intramuscularly, second dose 0.15 mg manual intramuscularly) “symptoms of anaphylaxis are relieved or are at an acceptable level for transporting the patient to a physician”; (Example 2: patient approx. 25 Kg, first dose 0.125 mg manual intramuscularly, second dose 0.125 mg manual intramuscularly) “symptoms of anaphylaxis are relieved or are at an acceptable level for transporting the patient to a physician”; (Example 3: patient approx. 90 Kg, first dose 0.6 mg auto-injection subcutaneously, second dose 0.75 mg manual intramuscularly) “symptoms of anaphylaxis are relieved or are at an acceptable level for transporting the patient to a physician”; (Example 4: patient approx. 110 Kg, first dose 0.75 mg auto-injection intramuscularly, second dose 1.0 mg auto-injector intramuscularly) “symptoms of anaphylaxis are relieved or are at an acceptable level for transporting the patient to a physician”.
